From patent US20250177429A1, “ORALLY ACTIVE PRODRUG OF GEMCITABINE” (Laevoroc Chemotherapy AG, priority 2022, published 2025)
Where two headings read alike, the source gives them in different places.

Experiments:
[1] = Solubility of the mono-hydrochloride salt in water and buffer solutions; assay type: physicochemical; conditions: thermodynamic from solid; for solubility at 15 min: solid added until saturation
Procedure: In each case, a first estimation was performed by adding small amounts of solvents until dissolution of the solid (50 mg), followed by a second estimation performed through the addition of small amounts of solid to a determined quantity of solvent until saturation was reached (suspension observed after 15 min). This second estimation was undertaken twice for each solution.

[2] = Powder stability of the API on storage; assay type: physicochemical; conditions: powder form of the API, FIG. 3
[3] = Stability in aqueous media at RT; assay type: physicochemical
Source text: Regarding to the MS profile, most of the observed impurities concern a valproic moiety cleavage and/or valine moiety migration/cleavage. […] In agreement with earlier observation, a lower acidity medium will likely result in a higher ratio of valine hydrolysis.

[4] = target: CDA (Homo sapiens, UniProt P32320); conditions: Bender et al. 2009; cited from earlier work
[5] = tested on: Japanese patients; conditions: phase I, 2013; cited from earlier work
[6] = result of first pass metabolism; Shipley et al. 1992; cited from earlier work
[7] = tested on: mice; conditions: cited from earlier work

CDA, sequence (P32320 whole entry, species assumed): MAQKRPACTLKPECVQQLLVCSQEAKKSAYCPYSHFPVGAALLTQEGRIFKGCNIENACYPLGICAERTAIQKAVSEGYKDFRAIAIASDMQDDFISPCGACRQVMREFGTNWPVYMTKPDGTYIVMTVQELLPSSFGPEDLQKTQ

In the case of `CCCC(CCC)C(=O)Nc1ccn([C@@H]2O[C@H](CO)[C@@H](OC(=O)[C@@H](N)C(C)C)C2(F)F)c(=O)n1.Cl` [LR-06-B.HCl, (2R,3R,5R)-4,4-difluoro-2-(hydroxymethyl)-5-(2-oxo-4-(2-propylpentanamido)-1,2-dihydropyrimidin-1-yl)oxolan-3-yl (2S)-2-amino-3-methylbutanoate hydrochloride], the solubility ([1]; buffer solution pH 1.2, pH 1.2, simulated gastric fluid, Buffer pH 1.2, read-out: Mean solubility) is reported as 211 mg/mL, the solubility at 15 min ([1]; buffer solution pH 1.2, pH 1.2, simulated gastric fluid, Buffer pH 1.2, read-out: Solubility, Estimation 2a) is reported as 217 mg/mL and the solubility at 15 min ([1]; buffer solution pH 1.2, pH 1.2, simulated gastric fluid, Buffer pH 1.2, read-out: Solubility, Estimation 2b) is reported as 208 mg/mL. It also gave a solubility ([1]; buffer solution pH 1.2, pH 1.2, simulated gastric fluid, Buffer pH 1.2, solvent added until dissolution of 50 mg solid, read-out: Solubility, Estimation 1) of 207 mg/mL, a solubility ([1]; buffer solution pH 4.5, pH 4.5, aqueous buffer, Buffer pH 4.5, read-out: Mean solubility) of 227 mg/mL and a solubility at 15 min ([1]; buffer solution pH 4.5, pH 4.5, aqueous buffer, Buffer pH 4.5, read-out: Solubility, Estimation 2a) of 236 mg/mL. The solubility at 15 min ([1]; buffer solution pH 4.5, pH 4.5, aqueous buffer, Buffer pH 4.5, read-out: Solubility, Estimation 2b) was 233 mg/mL, the solubility ([1]; buffer solution pH 4.5, pH 4.5, aqueous buffer, Buffer pH 4.5, solvent added until dissolution of 50 mg solid, read-out: Solubility, Estimation 1) was 213 mg/mL and the solubility ([1]; buffer solution pH 6.8, pH 6.8, aqueous buffer, Buffer pH 6.8, read-out: Mean solubility) was 275 mg/mL. The solubility at 15 min ([1]; buffer solution pH 6.8, pH 6.8, aqueous buffer, Buffer pH 6.8, read-out: Solubility, Estimation 2a) was 302 mg/mL, the solubility at 15 min ([1]; buffer solution pH 6.8, pH 6.8, aqueous buffer, Buffer pH 6.8, read-out: Solubility, Estimation 2b) was 280 mg/mL and the solubility ([1]; buffer solution pH 6.8, pH 6.8, aqueous buffer, Buffer pH 6.8, solvent added until dissolution of 50 mg solid, read-out: Solubility, Estimation 1) was 241 mg/mL. For the same molecule, the solubility ([1]; water, Water, read-out: Mean solubility) was 394 mg/mL, the solubility at 15 min ([1]; water, Water, read-out: Solubility, Estimation 2a) was 463 mg/mL and the solubility at 15 min ([1]; water, Water, read-out: Solubility, Estimation 2b) was 462 mg/mL. The solubility ([1]; water, Water, solvent added until dissolution of 50 mg solid, read-out: Solubility, Estimation 1) was 257 mg/mL, the “Powder stability, change on storage” value ([2]; 3 months' storage at 2-4° C.) was “no significant change” and the “Powder stability, change on storage” value ([2]; 3 months' storage at RT) was “no significant change”. The “Stability in aqueous media at RT” value ([3]; Water, 30 Min) was 97.06%, the “Stability in aqueous media at RT” value ([3]; Water, 1 hour) was 96.98% and the “Stability in aqueous media at RT” value ([3]; Water, 2 hours) was 96.89%. For the same molecule, the “Stability in aqueous media at RT” value ([3]; Water, 4 hours) was 96.62%, the “Stability in aqueous media at RT” value ([3]; Water, 6 hours) was 96.42% and the “Stability in aqueous media at RT” value ([3]; Water, 1 day) was 94.45%. For the same molecule, the “Stability in aqueous media at RT” value ([3]; Water, 2 days) was 91.07%, the “Stability in aqueous media at RT” value ([3]; Water, 7 days) was 77.12% and the “Stability in aqueous media at RT” value ([3]; Water, time 0 (API Powder)) was 97.21%. The “Degradation of the API in aqueous media” value ([3]; aqueous media, RT, FIG. 4) was “significant short-term degradation”, the “Stability in aqueous media at RT” value ([3]; pH 1.2, 30 Min) was 97.03% and the “Stability in aqueous media at RT” value ([3]; pH 1.2, 1 hour) was 96.83%. The “Stability in aqueous media at RT” value ([3]; pH 1.2, 2 hours) was 96.42%, the “Stability in aqueous media at RT” value ([3]; pH 1.2, 4 hours) was 95.71% and the “Stability in aqueous media at RT” value ([3]; pH 1.2, 6 hours) was 95.14%. The “Stability in aqueous media at RT” value ([3]; pH 1.2, 1 day) was 88.40%, the “Stability in aqueous media at RT” value ([3]; pH 1.2, 2 days) was 80.05% and the “Stability in aqueous media at RT” value ([3]; pH 1.2, 7 days) was 30.60%. For the same molecule, the “Stability in aqueous media at RT” value ([3]; pH 1.2, time 0 (API Powder)) was 97.21%, the “Stability in aqueous media at RT” value ([3]; pH 4.5, 30 Min) was 96.45% and the “Stability in aqueous media at RT” value ([3]; pH 4.5, 1 hour) was 96.35%. For the same molecule, the “Stability in aqueous media at RT” value ([3]; pH 4.5, 2 hours) was 96.24%, the “Stability in aqueous media at RT” value ([3]; pH 4.5, 4 hours) was 95.46% and the “Stability in aqueous media at RT” value ([3]; pH 4.5, 6 hours) was 94.87%. The “Stability in aqueous media at RT” value ([3]; pH 4.5, 1 day) was 90.73%, the “Stability in aqueous media at RT” value ([3]; pH 4.5, 2 days) was 84.24% and the “Stability in aqueous media at RT” value ([3]; pH 4.5, 7 days) was 57.17%. The “Stability in aqueous media at RT” value ([3]; pH 4.5, time 0 (API Powder)) was 97.21%, the “Stability in aqueous media at RT” value ([3]; pH 6.8, 30 Min) was 91.08% and the “Stability in aqueous media at RT” value ([3]; pH 6.8, 1 hour) was 87.32%. The “Stability in aqueous media at RT” value ([3]; pH 6.8, 2 hours) was 80.70%, the “Stability in aqueous media at RT” value ([3]; pH 6.8, 4 hours) was 65.65% and the “Stability in aqueous media at RT” value ([3]; pH 6.8, 6 hours) was 57.40%. For the same molecule, the “Stability in aqueous media at RT” value ([3]; pH 6.8, 1 day) was 9.48%, the “Stability in aqueous media at RT” value ([3]; pH 6.8, 2 days) was 7.48% and the “Stability in aqueous media at RT” value ([3]; pH 6.8, 7 days) was 1.77%. For the same molecule, the “Stability in aqueous media at RT” value ([3]; pH 6.8, time 0 (API Powder)) was 97.21%.

In the case of `CCCC(CCC)C(=O)Nc1ccn([C@@H]2O[C@H](CO)[C@@H](O)C2(F)F)c(=O)n1` [LY2334737], the “Degradation by CDA” value [4] is given as “significantly less prone to degradation by CDA” and the Hepatic toxicity [5] is given as “unexpected hepatic toxicities”.

In the case of `Nc1ccn([C@@H]2O[C@H](CO)[C@@H](O)C2(F)F)c(=O)n1` [gemcitabine, Gemcitabine], the Oral bioavailability [6] is listed as “poor”, the “Death or gastrointestinal toxicity after intravenous dosing” value ([7]; comparable exposures via intravenous dosing) is listed as “did not result in death or gastrointestinal toxicity” and the “Intestinal lesions after single oral dose” value ([7]; single oral (gavage) dose of 167, 333, or 500 mg/kg, Horton et al. 2004) is listed as “moderate-to-marked loss of mucosal epithelium (atrophic enteropathy)”.
